Reference: article PMC9180926, “Discovery of Novel 3-Hydroxyquinazoline-2,4(1H,3H)-Dione Derivatives: A Series of Metal Ion Chelators with Potent Anti-HCV Activities” (International Journal of Molecular Sciences, 2022)

Test: Metal ion chelation assay using UV-Vis spectrophotometry
Type: physicochemical
Excerpt: The chelation rules of the 3-hydroxyquinazoline-2,4(1H,3H)-diones with magnesium ions were explored by UV-Vis spectrophotometry, which was widely used to study the binding properties of compounds with metal ions in vitro [56, 57, 58]. For the sake of eliminating the interference of heteroaryl groups on the determination of metal ion chelation, the representative compound 21e with phenyl group substituted at the C-7 position was selected to study its chelation ability with Mg^2+ under different conditions. […] This is probably because compound 21e mainly exists in the free molecular state with the N-hydroxyl group protonated in methanol, which is difficult to chelate with Mg^2+. Intriguingly, after the introduction of 5 mm NaOAc to the methanol solution containing 21e, the effect of MgCl2 on the absorbance of the system totally changed (Figure 5B). […] Remarkably, merely 20 μM MgCl2 was able to increase the absorbance by more than 0.5. […] A reasonable logic is that the addition of NaOAc raised the pH of the methanol solution, resulting in partial ionization of compound 21e at the N-hydroxyl group. Subsequently, 21e in the ionic state formed a chelation complex with Mg^2+, which increased the absorbance of the solution.
With the aim of verifying whether 21e has the ability to chelate with Mg^2+ in the ionic state, we further investigated the influence of various concentrations of NaOAc on the differential UV-Vis spectra caused by the addition of MgCl2. […] Moreover, the magnitude of the variation in the spectrum is proportional to the concentration of NaOAc. […] The comparison between different UV-Vis spectra also verified that compound 21e could chelate with Mg^2+ in the N-hydroxyl deprotonated form rather than the free molecular state.
2 mL of methanol solution containing the components in the sample or control group (Table 4) was added to a quartz cuvette (BQ-114-2, Chongqing Xinweier Glass Co., Ltd., Chongqing, China). The absorbance at 200–400 nm was scanned by a UV-Vis spectrophotometer (Agilent Cary 60, Agilent Technologies, Santa Clara, CA, USA), and the blank methanol was used for baseline calibration. The absorbance of the control group was subtracted from that of the sample group at the corresponding wavelength to obtain the differential UV-Vis spectra, which were used to analyze the chelating property of the compound with Mg^2+.

O=c1[nH]c2cc(-c3ccccc3)ccc2c(=O)n1O [21e, 3-Hydroxy-7-phenylquinazoline-2,4(1H,3H)-dione]
absorbance difference at 254 nm between control group and sample group (50 μM compound in methanol, no NaOAc, MgCl2 up to 640 μM): no more than 0.1
increase of absorbance at 254 nm (50 μM compound, 80 μM MgCl2, 200 μM to 5 mm NaOAc in methanol): 0.8–1.2
increase of absorbance at 254 nm (50 μM compound, 5 mm NaOAc in methanol, 20 μM MgCl2): more than 0.5
Mg^2+ concentration at which absorbance change reaches equilibrium (50 μM compound, 5 mm NaOAc in methanol, 254 nm): about 400 μM
